Measurements: patent publication US9458132B2, “Therapeutic compounds and compositions and their use as PKM2 modulators” (AGIOS PHARMACEUTICALS, INC., priority 2012, dated 2016)

Tests used:
PKR R510Q = PKR R510Q (Homo sapiens, UniProt P30613, R510Q); experiment: PKR mutant assay, PKR R510Q AC50; format: biochemical; details: mutant PKR R510Q enzyme
Procedure: (§1) • PKR or PKR mutant enzyme solution was diluted in assay buffer. • 2 μL of test compound was added into wells first, and then 180 μL reaction mix was added. • Reactions mixture with test compound was assembled except for ADP, and plates were stored for 60 minutes at room temperature. • 20 uL ADP was added to start reaction at room temperature and reaction progress was measured as changes in absorbance at 340 nm wavelength at room temperature.
Test Compound Preparation: • Test compound stock was made at 100x concentration in 100% DMSO (10 mM) • 1 to 3 dilutions were made for 11 points (i.e. 50 μl of first concentration added to 100 μl 100% DMSO to yield 3.33 mM, 50 μl of this added to 100 μl DMSO to yield 1.11 mM, and so forth) • 1 to 100 dilution into assay (2 μl in 200 μl) yielded starting concentration of 100 μM, decreasing 3 fold for 11 points • Assay Buffer: 100 mM KCl, 50 mM Tris 7.5, 5 mM MgCl2, 1 mM DTT, 0.03% BSA • Reaction Mixture: PKR mutant enzyme: 80-400 ng/well; ADP: 0.22-1.65 mM; PEP: 0.1-0.5 mM; NADH:180 uM; LDH: 0.5 units (Sigma#59023); DTT: 1 mM; BSA: 0.03%. […]

PKR R532W = PKR R532W (Homo sapiens, UniProt P30613, R532W); experiment: PKR mutant assay, PKR R532W AC50; format: biochemical; details: mutant PKR R532W enzyme
Procedure: as §1
(§2) Test Compound Preparation: • Test compound stock was made at 100x concentration in 100% DMSO (10 mM) • 1 to 3 dilutions were made for 11 points (i.e. 50 μl of first concentration added to 100 μl 100% DMSO to yield 3.33 mM, 50 μl of this added to 100 μl DMSO to yield 1.11 mM, and so forth) • 1 to 100 dilution into assay (2 μl in 200 μl) yielded starting concentration of 100 μM, decreasing 3 fold for 11 points • Assay Buffer: 100 mM KCl, 50 mM Tris 7.5, 5 mM MgCl2, 1 mM DTT, 0.03% BSA • Reaction Mixture: PKR mutant enzyme: 80-400 ng/well; ADP: 0.22-1.65 mM; PEP: 0.1-0.5 mM; NADH:180 uM; LDH: 0.5 units (Sigma#59023); DTT: 1 mM; BSA: 0.03%.
(§3) A compound described herein was diluted with DMSO and tested at 1 μM concentration. The enzyme was diluted in 1× Buffer: (100 mM KCl, 50 mM Tris 7.5, 5 mM MgCl2, 1 mM DTT, 0.03% BSA). 2 μL of compound solution was first added into wells, and then 180 μL of enzyme solution was added. Assays were assembled except for ADP, and plates were stored for 60 minutes at RT. 20 μL ADP was added to start the assay and assay output was evaluated using OD340 at SpectraMax. The assay was run at room temperature. • Final concentration: PKR R532W (100 ng/well), Tris pH 7.5 (50 mM), KCl (100 mM), MgCl2 (5 mM), ADP (0.36 mM), PEP (0.1 mM), NADH (180 μM), LDH (0.5 units, Sigma 59023), DTT (1 mM) and BSA (0.03%).

PKR WT [1] = target: T1, PKR WT (Homo sapiens, UniProt P30613); experiment: PKR WT enzymatic assay AC50; format: biochemical; details: wild type PKR
Procedure: as §1, §2
as §3, with “wt” for “R532W”, “(0.48” for “(0.36”, “(0.15” for “(0.1”

PKR WT [2] = target: T1, PKR WT; experiment: PKR WT cell based assay AC50; details: wild type PKR

Sequence of PKR R532W (P30613 whole entry R532W): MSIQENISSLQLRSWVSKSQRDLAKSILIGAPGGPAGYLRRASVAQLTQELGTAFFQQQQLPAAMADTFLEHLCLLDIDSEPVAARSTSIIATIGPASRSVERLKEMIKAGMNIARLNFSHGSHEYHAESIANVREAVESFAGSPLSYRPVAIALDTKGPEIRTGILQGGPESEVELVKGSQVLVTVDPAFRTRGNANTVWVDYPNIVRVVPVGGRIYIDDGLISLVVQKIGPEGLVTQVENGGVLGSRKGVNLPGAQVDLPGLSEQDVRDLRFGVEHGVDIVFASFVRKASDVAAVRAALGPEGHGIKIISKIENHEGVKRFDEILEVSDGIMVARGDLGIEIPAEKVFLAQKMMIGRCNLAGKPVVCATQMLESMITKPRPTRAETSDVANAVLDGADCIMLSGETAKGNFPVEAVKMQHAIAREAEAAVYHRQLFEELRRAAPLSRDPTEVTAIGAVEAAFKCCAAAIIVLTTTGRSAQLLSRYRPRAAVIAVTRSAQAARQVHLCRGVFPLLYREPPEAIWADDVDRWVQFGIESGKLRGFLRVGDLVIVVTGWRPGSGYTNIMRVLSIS
Sequence of PKR R510Q (P30613 whole entry R510Q): as the sequence (P30613 whole entry R532W) above, with R510Q, W532R counted along it
T1 sequence (P30613 whole entry): as the sequence (P30613 whole entry R532W) above, with W532R counted along it

Compound	AC50 (PKR R510Q) [nM]	AC50 (PKR R532W) [nM]	AC50 (PKR WT [1]) [nM]	AC50 (PKR WT [2]) [nM]
CCCCC1(O)CN(C(=O)c2ccc(NS(=O)(=O)c3cccc4cccnc34)cc2)C1 [Compound 16, N-(4-(3-butyl-3-hydroxyazetidine-1-carbonyl)phenyl)quinoline-8-sulfonamide]	101 to 1000	101 to 1000	< 100	101 to 1000
COc1ncccc1C1(O)CN(C(=O)c2ccc(NS(=O)(=O)c3cccc4cccnc34)cc2)C1 [Compound 20, N-(4-(3-hydroxy-3-(2-methoxypyridin-3-yl)azetidine-1-carbonyl)phenyl)quinoline-8-sulfonamide]	101 to 1000	101 to 1000	101 to 1000	101 to 1000
O=C(c1ccc(NS(=O)(=O)c2cccc3c2OCCO3)cc1)N1CC(O)(Cc2ccccc2)C1 [Compound 53, N-(4-(3-benzyl-3-hydroxyazetidine-1-carbonyl)phenyl)-2,3-dihydrobenzo[b][1,4]dioxine-5-sulfonamide]	< 100	< 100	< 100	< 100
Cc1ncccc1C1(O)CN(C(=O)c2ccc(NS(=O)(=O)c3cccc4cccnc34)cc2)C1 [Compound 19, N-(4-(3-hydroxy-3-(2-methylpyridin-3-yl)azetidine-1-carbonyl)phenyl)quinoline-8-sulfonamide]	101 to 1000	< 100	101 to 1000	101 to 1000
Cc1ccccc1C1(O)CN(C(=O)c2ccc(NS(=O)(=O)c3cccc4cccnc34)cc2)C1 [Compound 15, N-(4-(3-hydroxy-3-(o-tolyl)azetidine-1-carbonyl)phenyl)quinoline-8-sulfonamide]	101 to 1000	< 100	< 100	101 to 1000
O=C(c1ccc(NS(=O)(=O)c2cccc3cccnc23)cc1)N1CC(O)(c2ccccc2Cl)C1 [Compound 5, N-(4-(3-(2-chlorophenyl)-3-hydroxyazetidine-1-carbonyl)phenyl)quinoline-8-sulfonamide]	101 to 1000	< 100	< 100	101 to 1000
COc1ccccc1C1(O)CN(C(=O)c2ccc(NS(=O)(=O)c3cccc4cccnc34)cc2)C1 [Compound 2, N-(4-(3-hydroxy-3-(2-methoxyphenyl)azetidine-1-carbonyl)phenyl)quinoline-8-sulfonamide]	101 to 1000	< 100	< 100	101 to 1000
O=C(c1ccc(NS(=O)(=O)c2cccc3cccnc23)cc1)N1CC(O)(c2ccccc2OC(F)(F)F)C1 [Compound 7, N-(4-(3-hydroxy-3-(2-(trifluoromethoxy)phenyl)azetidine-1-carbonyl)phenyl)quinoline-8-sulfonamide]	101 to 1000	< 100	101 to 1000	101 to 1000
Cc1cc(F)ccc1C1(O)CN(C(=O)c2ccc(NS(=O)(=O)c3cccc4cccnc34)cc2)C1 [Compound 12, N-(4-(3-(4-fluoro-2-methylphenyl)-3-hydroxyazetidine-1-carbonyl)phenyl)quinoline-8-sulfonamide]	101 to 1000	< 100	< 100	101 to 1000
O=C(c1ccc(NS(=O)(=O)c2cccc3cccnc23)cc1)N1CC(O)(c2cccnc2C(F)(F)F)C1 [Compound 17, N-(4-(3-hydroxy-3-(2-(trifluoromethyl)pyridin-3-yl)azetidine-1-carbonyl)phenyl)quinoline-8-sulfonamide]	101 to 1000		< 100	101 to 1000
CCc1ccccc1C1(O)CN(C(=O)c2ccc(NS(=O)(=O)c3cccc4cccnc34)cc2)C1 [Compound 13, N-(4-(3-(2-ethylphenyl)-3-hydroxyazetidine-1-carbonyl)phenyl)quinoline-8-sulfonamide]	101 to 1000		< 100	< 100

Next, values leading:

AC50 (PKR R510Q) [nM]	AC50 (PKR R532W) [nM]	AC50 (PKR WT [1]) [nM]	AC50 (PKR WT [2]) [nM]	Compound
101 to 1000	< 100	< 100	< 100	COc1cccc(C2(O)CN(C(=O)c3ccc(NS(=O)(=O)c4cccc5cccnc45)cc3)C2)c1 [Compound 61]
101 to 1000	< 100	< 100	101 to 1000	O=C(c1ccc(NS(=O)(=O)c2cccc3cccnc23)cc1)N1CC(O)(c2cccc(Cl)c2)C1 [Compound 11, N-(4-(3-(3-chlorophenyl)-3-hydroxyazetidine-1-carbonyl)phenyl)quinoline-8-sulfonamide]
< 100	< 100	< 100	< 100	O=C(c1ccc(NS(=O)(=O)c2cccc3cccnc23)cc1)N1CC(O)(c2cccc(C(F)(F)F)c2)C1 [Compound 9, N-(4-(3-hydroxy-3-(3-(trifluoromethyl)phenyl)azetidine-1-carbonyl)phenyl)quinoline-8-sulfonamide]
1010 to 10000	101 to 1000	101 to 1000	< 100	O=C(c1ccc(NS(=O)(=O)c2cccc3cccnc23)cc1)N1CC(O)(c2cccc(F)c2)C1 [Compound 4, N-(4-(3-(3-fluorophenyl)-3-hydroxyazetidine-1-carbonyl)phenyl)quinoline-8-sulfonamide]
101 to 1000	< 100	< 100	101 to 1000	O=C(c1ccc(NS(=O)(=O)c2cccc3cccnc23)cc1)N1CC(O)(c2cccc(OC(F)(F)F)c2)C1 [Compound 10, N-(4-(3-hydroxy-3-(3-(trifluoromethoxy)phenyl)azetidine-1-carbonyl)phenyl)quinoline-8-sulfonamide]
1010 to 10000	101 to 1000	101 to 1000		O=C(c1ccc(NS(=O)(=O)c2cccc3cccnc23)cc1)N1CC(O)(c2ccc(F)cc2)C1 [Compound 14, N-(4-(3-(4-fluorophenyl)-3-hydroxyazetidine-1-carbonyl)phenyl)quinoline-8-sulfonamide]
